According to patent publication US4642340A, “Stable compounds of glucosamine sulphate” (Rotta Research Laboratorium S.p.A., priority 1981, dated 1987):
Structures can show the parent of a compound that is named as a salt. Where two headings read alike, the source gives them in different places.

Legend:
[1] = Solubility at 25° C. (w/v), saturated solutions, Elson-Morgan colorimetric method; assay type: physicochemical; conditions: for solubility thermodynamic: w/v
Description: Solubility (at 25° C.--w/v).
This test was carried out by preparing saturated solutions of glucosamine-SP in various solvents and determining the concentration of the glucosamine by the Elson-Morgan colorimetric method mentioned above.

pH of aqueous solution = assay type: physicochemical
Description: The pH of an aqueous saturated solution of glucosamine-SP at 20° C. is 3.0±0.2.

mice-embryo fibroblast [2] = assay: Stimulation of the production of soluble GAG in mice-embryo fibroblast cultures, uptake of ^35 S; assay type: cell-based, mice (strain C57 BL/6 stCrl)
Description: (§2) For this purpose, primary cultures of mice-embryo fibroblasts (strain C57 BL/6 stCrl) were prepared by mechanical and enzymatic dissociation (in Trypsin Versene mixture-Microbiological Associates) of the embryos taken from the mother on the 18th day of pregnancy. The culture medium is the Eagle medium modified by Dulbecco and supplemented with 15% of calf foetus serum. The incubation atmosphere consists of 5% of carbon dioxide in air at 37° C. 24 hours after innoculation, the medium is replaced by a new medium containing the drug under examination and the radioactive precursor (Na2^35 SO4) for the measurement of the synthesis both of soluble and tissue-bound GAG; the culture is left to incubate for a further 24 hours and then the culture medium (containing the soluble GAG) and fibroblasts (containing the tissue-bound GAG) are separated.
(§3) The soluble GAG are isolated from the culture medium by precipitation with a solution of 5% trichloroacetic acid in ice-water while the fibroblast residues, containing the tissue-bound GAG, after repeated washings with physiological solutions, are dissolved in [sequence] or VERSENE.
(§4) The quantity of ^35 S incorporated both in the soluble GAG and in the tissue-bound GAG are evaluated by the usual scintillation methods and expressed in cpm (counts per minute).
(§5) The tests were carried out five times for each sample in order to allow the results to be evaluated statistically.

mice-embryo fibroblast [3] = assay: Stimulation of the production of tissue-bound GAG in mice-embryo fibroblast cultures, uptake of ^35 S; assay type: cell-based, mice (strain C57 BL/6 stCrl)
Description: as §2, §3, §4, §5

[4] = test system: granuloma from cotton pellets; assay: Anti-inflammatory activity, granuloma induced by cotton pellets; assay type: in vivo, female albino rats of the Sprague Dawley strain; conditions: for Average dry weight of the granuloma (average ± s.e.): in mg (unit assumed)
Description: The test consists of evaluating the capacity of the substances under examination to inhibit the formation of granuloma following the subcutaneous implantation of extraneous bodies (in this case, cotton pellets). […] One group of animals was used as a control. […] After the subcutaneous implant of 2 cotton pellets each having a weight of 20 mg into the dorsal region, the animals were administered daily, for 4 consecutive days, with the substances under examination in the doses given above.

Acute toxicity in mice = assay: Acute toxicity in mice; parameters: species or system Swiss NMRI mice; conditions: mouse, in vivo; for LD50 at 240 h: 10 days observation, read-out: DL50
Text: Swiss NMRI mice having an average weight of 20±2 g, subdivided in groups of 10 animals (5 females and 5 males) were used for each dose and for each method of administration.
The methods of administration were: oral by means of gastric probe, intramuscular and endovenous into the caudal vein.
(§1) The observation time after administration was 10 days.

Acute toxicity in rats = assay: Acute toxicity in rats; parameters: species or system Sprague Dawley albino rats; conditions: rat, in vivo; for LD50 at 240 h: 10 days observation, read-out: DL50
Text: Sprague Dawley albino rats having an average weight of about 150 g, subdivided into groups of 10 animals (5 males and 5 females) were used for each dose and for each method of administration.
The methods of administration were: oral by means of a gastric probe, intramuscular and endovenous into the caudal vein.
as §1

physchem = conditions: solid storage
[5] = 375 mg/kg/os daily, 4 days (= 300 mg/kg glucosamine sulphate)
[6] = 750 mg/kg/os daily, 4 days (= 600 mg/kg glucosamine sulphate)
[7] = im, intramuscular, max. dose 3750 mg/kg
[8] = iv, endovenous, max. dose 1875 mg/kg

For `N[C@H]1C(O)O[C@H](CO)[C@@H](O)[C@@H]1O` (stereo partly shown) [Glucosamine-SP, mixed salt of glucosamine sulphate and sodium chloride], the “Solubility (in words)” value ([1]; benzene, chloroform, carbon tetrachloride, methylene chloride, ligroin, ethyl ether) was “insoluble”, the solubility thermodynamic ([1]; organic solvent or mixture, acetone, acetonitrile, tetrahydrofuran, dioxan (each)) was < 100 µg/mL and the solubility thermodynamic ([1]; organic solvent or mixture, ethanol) was ~300 µg/mL. The solubility thermodynamic ([1]; organic solvent or mixture, methanol) was ~10000 µg/mL, the solubility thermodynamic ([1]; water) was ~400000 µg/mL and the “pH of an aqueous saturated solution” value (pH of aqueous solution; 20° C.) was 3.0±0.2. The “natural pH at the concentrations used” value (pH of aqueous solution; injectable phial concentrations) was “about 3”, the “Soluble GAG synthesis, average ± s.e.” value (mice-embryo fibroblast [2]; 12.5 γ/ml) was 6750 ± 718 cpm and the “Soluble GAG synthesis, average ± s.e.” value (mice-embryo fibroblast [2]; 62.5 γ/ml) was 12730 ± 1201 cpm. For the same compound, the “Soluble GAG synthesis, average ± s.e.” value (mice-embryo fibroblast [2]; 125 γ/ml) was 12440 ± 1473 cpm, the activation at 12.5 µg/mL (mice-embryo fibroblast [2]; Mus musculus, Fibroblast, 24 h, 12.5 γ/ml, read-out: Δ % over non-treated controls, soluble GAG) was 15.8% and the activation at 62.5 µg/mL (mice-embryo fibroblast [2]; Mus musculus, Fibroblast, 24 h, 62.5 γ/ml, read-out: Δ % over non-treated controls, soluble GAG) was 118%. The activation at 125 µg/mL (mice-embryo fibroblast [2]; Mus musculus, Fibroblast, 24 h, 125 γ/ml, read-out: Δ % over non-treated controls, soluble GAG) was 113%, the “Tissue-bound GAG synthesis” value (mice-embryo fibroblast [3]; 12.5 γ/ml) was 5490 ± 604 cpm and the “Tissue-bound GAG synthesis” value (mice-embryo fibroblast [3]; 62.5 γ/ml) was 7780 ± 612 cpm. For the same compound, the “Tissue-bound GAG synthesis” value (mice-embryo fibroblast [3]; 125 γ/ml) was 8320 ± 1295 cpm, the activation at 12.5 µg/mL (mice-embryo fibroblast [3]; Mus musculus, Fibroblast, 24 h, 12.5 γ/ml, read-out: Δ % over non-treated controls, tissue-bound GAG) was 17.3% and the activation at 62.5 µg/mL (mice-embryo fibroblast [3]; Mus musculus, Fibroblast, 24 h, 62.5 γ/ml, read-out: Δ % over non-treated controls, tissue-bound GAG) was 66.2%. The activation at 125 µg/mL (mice-embryo fibroblast [3]; Mus musculus, Fibroblast, 24 h, 125 γ/ml, read-out: Δ % over non-treated controls, tissue-bound GAG) was 77.8%, the “% Inhibition of granuloma” value [4, 5] was 38.7% and the “Average dry weight of the granuloma (average ± s.e.)” value [4, 5] was 94.6 ± 10.7. For the same compound, the “% Inhibition of granuloma” value [4, 6] was 58.0%, the “Average dry weight of the granuloma (average ± s.e.)” value [4, 6] was 64.8 ± 7.0 and the LD50 at 240 h (Acute toxicity in mice; im, intramuscular) was > 3750 mg/kg. The mortality at 240 h (Acute toxicity in mice; [7]) was 0%, the LD50 at 240 h (Acute toxicity in mice; iv, endovenous) was > 1880 mg/kg and the mortality at 240 h (Acute toxicity in mice; [8]) was 0%. The LD50 at 240 h (Acute toxicity in mice; oral) was > 6250 mg/kg, the mortality at 240 h (Acute toxicity in mice; oral, max. dose 6250 mg/kg) was 0% and the LD50 at 240 h (Acute toxicity in rats; im, intramuscular) was > 3750 mg/kg. For the same compound, the mortality at 240 h (Acute toxicity in rats; [7]) was 0%, the LD50 at 240 h (Acute toxicity in rats; iv, endovenous) was > 1880 mg/kg and the mortality at 240 h (Acute toxicity in rats; [8]) was 0%. The LD50 at 240 h (Acute toxicity in rats; oral) was > 6250 mg/kg, the mortality at 240 h (Acute toxicity in rats; oral, max. dose 6250 mg/kg) was 0% and the Appearance (15° C., 30% R.H., 0 days) was 1. It also gave a Titre of glucosamine (15° C., 30% R.H., 0 days) of 101.2%, an Appearance (15° C., 30% R.H., 7 days) of 1 and an Appearance (15° C., 30% R.H., 15 days) of 1. It also gave an Appearance (15° C., 30% R.H., 30 days) of 1, an Appearance (15° C., 30% R.H., 60 days) of 1 and an Appearance (15° C., 30% R.H., 120 days) of 1. The Appearance (15° C., 30% R.H., 360 days) was 1, the Appearance (15° C., 45% R.H., 0 days) was 1 and the Titre of glucosamine (15° C., 45% R.H., 0 days) was 100.7%. It also gave an Appearance (15° C., 45% R.H., 7 days) of 1, an Appearance (15° C., 45% R.H., 15 days) of 1 and an Appearance (15° C., 45% R.H., 30 days) of 1. The Appearance (15° C., 45% R.H., 60 days) was 1, the Appearance (15° C., 45% R.H., 120 days) was 1 and the Appearance (15° C., 45% R.H., 360 days) was 1. It also gave an Appearance (15° C., 60% R.H., 0 days) of 1, a Titre of glucosamine (15° C., 60% R.H., 0 days) of 101.2% and an Appearance (15° C., 60% R.H., 3 days) of 1. For the same compound, the Appearance (15° C., 60% R.H., 6 days) was 1, the Appearance (15° C., 60% R.H., 12 days) was 1 and the Appearance (15° C., 60% R.H., 24 days) was 1. It also gave an Appearance (15° C., 60% R.H., 36 days) of 1, an Appearance (15° C., 60% R.H., 48 days) of 1 and an Appearance (25° C., 30% R.H., 0 days) of 1. For the same compound, the Appearance (25° C., 30% R.H., 7 days) was 1, the Appearance (25° C., 30% R.H., 15 days) was 1 and the Appearance (25° C., 30% R.H., 30 days) was 1. It also gave an Appearance (25° C., 30% R.H., 60 days) of 1, an Appearance (25° C., 30% R.H., 120 days) of 1 and an Appearance (25° C., 30% R.H., 360 days) of 1. The Appearance (25° C., 45% R.H., 0 days) was 1, the Titre of glucosamine (25° C., 45% R.H., 0 days) was 98.9% and the Appearance (25° C., 45% R.H., 3 days) was 1. For the same compound, the Appearance (25° C., 45% R.H., 6 days) was 1, the Appearance (25° C., 45% R.H., 12 days) was 1 and the Appearance (25° C., 45% R.H., 24 days) was 1. It also gave an Appearance (25° C., 45% R.H., 36 days) of 1, an Appearance (25° C., 45% R.H., 48 days) of 1 and an Appearance (25° C., 60% R.H., 0 hours) of 1. The Titre of glucosamine (25° C., 60% R.H., 0 hours) was 100.7%, the Appearance (25° C., 60% R.H., 2 hours) was 1 and the Appearance (25° C., 60% R.H., 4 hours) was 1. The Appearance (25° C., 60% R.H., 8 hours) was 1, the Appearance (25° C., 60% R.H., 16 hours) was 1 and the Appearance (25° C., 60% R.H., 24 hours) was 1. For the same compound, the Appearance (25° C., 60% R.H., 36 hours) was 1, the “Preservation after one year” value (25° C., 60% relative humidity, one year) was “perfectly preserved” and the Colour change (40° C., 85% relative humidity, about 12 months) was “slight darkening of the colour”. The “Change in the subsequent 12 months” value (40° C., 85% relative humidity, months 12 to 24) was “remains constant”, the “Appearance scale value assigned in all the tests” value (all temperature/humidity conditions of Tables 1 to 6) was 1 and the “Sensitivity to ambient relative humidity” value (even at high temperatures) was “practically negligible”. For the same compound, the Titre of glucosamine (solid storage, 8 h) was 101.2%, the Titre of glucosamine (solid storage, 24 h) was 99.2% and the Titre of glucosamine (solid storage, 1152 h) was 98.4%. The Titre of glucosamine (solid storage, 1440 h) was 98.6%, the degraded at 8760 h (physchem; 85% rh) was 3 to 4% and the remaining at 36 h (physchem; Titre of glucosamine) was 100%. It also gave a remaining at 1152 h (physchem; Titre of glucosamine) of 101%.
